Molecular target: human P2X3 receptor (Homo sapiens (Human), UniProt P56373)
Test: Evaluation of human P2X3 receptor inhibitory activity (Fluo-3 calcium fluorescence, FDSS 3000, ATP stimulation);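 note: stimulus was 50 nM ATP with fluorescence followed for 3 min, and the response per well was peak post-ATP fluorescence divided by the reading at measurement start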
Format: cell-based
[1] = C6BU-1 cells stably expressing human P2X3 receptor
[2] = human P2X3 receptor, Test Example 1
[3] = C6BU-1 cells stably expressing human P2X3 receptor, Fluo-3 fluorescence, FDSS 3000

Sequence of human P2X3 receptor (P56373 whole entry): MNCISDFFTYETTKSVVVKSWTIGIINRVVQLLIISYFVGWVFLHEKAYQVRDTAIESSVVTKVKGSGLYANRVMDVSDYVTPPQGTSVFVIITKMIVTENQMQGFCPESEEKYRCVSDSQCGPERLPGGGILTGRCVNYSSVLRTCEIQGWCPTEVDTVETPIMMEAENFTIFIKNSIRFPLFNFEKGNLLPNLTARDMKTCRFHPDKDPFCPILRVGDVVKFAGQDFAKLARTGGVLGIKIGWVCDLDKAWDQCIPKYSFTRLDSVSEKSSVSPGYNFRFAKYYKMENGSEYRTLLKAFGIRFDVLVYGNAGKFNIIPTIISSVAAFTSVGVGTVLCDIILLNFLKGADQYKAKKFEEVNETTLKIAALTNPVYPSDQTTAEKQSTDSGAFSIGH

| Structure (SMILES) | IC50 [1] | IC50 [2] | further results |
| --- | --- | --- | --- |
| O=c1[nH]/c(=N\c2ccc3nc(C4CC4)sc3c2)n(Cc2ccc(Cl)cc2)c(=O)n1CCO [Compound I-2026] | 22 nM | – | – |
| Cn1c(=O)[nH]/c(=N\c2ccc(Oc3cc(C(N)=O)ccn3)cc2)n(Cc2ccc(Cl)cc2)c1=O [Compound I-2376] | – | 20 nM | – |
| COC(=O)[C@@H](C)[C@@H](C)n1c(=O)[nH]/c(=N\c2ccc(OC(C)C)c(C)c2)n(Cc2ccc(C)cc2)c1=O [Compound I-1312] | 45 nM | – | – |
| COC(=O)[C@@H](C)Cn1c(=O)[nH]/c(=N\c2ccc(Oc3ccccc3)cc2)n(Cc2ccc(C)cc2)c1=O [Compound I-0990] | – | – | IC50 [3]: 51 nM |
| CCn1c(=O)[nH]/c(=N\c2ccc(Oc3cccc(/C=C/C(=O)O)c3)cc2)n(Cc2ccc(Cl)cc2)c1=O [Compound I-2231] | – | 3 nM | – |
| O=c1ccccn1-c1ccc(/N=c2\[nH]c(=O)n(CCOC3CCCCO3)c(=O)n2Cc2ccc(Cl)cc2)cc1 (stereo not drawn) [Compound I-2040] | 23 nM | – | – |
| CCn1c(=O)[nH]/c(=N\c2ccc(Oc3cc(F)cc(C(=O)OC)c3)cc2)n(Cc2ccc(Cl)cc2)c1=O [Compound I-2219] | 14 nM | – | – |
| CCn1c(=O)[nH]/c(=N\c2ccc(O[C@H]3CN[C@H](C(=O)OC)C3)cc2)n(Cc2ccc(Cl)cc2)c1=O [Compound I-2277] | – | 107 nM | – |
| Cc1nsc(Oc2ccc(/N=c3\[nH]c(=O)n(C[C@H](O)CO)c(=O)n3Cc3ccc(Cl)cc3)cc2F)n1 [Compound I-2708] | – | 2 nM | – |
| CCc1oc2ccc(/N=c3\[nH]c(=O)n(CCC(=O)O)c(=O)n3Cc3ccc(Cl)cc3)cc2c1C [Compound I-1507] | – | 15 nM | – |
| COC(=O)[C@@H](C)Cn1c(=O)nc(Cc2ccccc2C)n(Cc2ccc(Cl)cc2)c1=O [Compound I-1865] | – | – | IC50 [3]: 357 nM |
| COC(=O)[C@@H](C)Cn1c(=O)[nH]/c(=N\c2ccc(CC(C)C)c(Cl)c2)n(Cc2ccc(Cl)cc2)c1=O [Compound I-1370] | 19 nM | – | – |
| CC(C)Oc1ccc(Nc2nc(=O)n(C(C)C)c(=O)n2Cc2ccc(F)cc2)cc1C#N [Compound I-0227] | – | – | IC50 [3]: 910 nM |
| CCCc1ccc(/N=c2\[nH]c(=O)n(CCC(=O)OCC)c(=O)n2Cc2ccc(C)cc2)cc1C [Compound I-1215] | 27 nM | – | – |
| COC(=O)[C@H](C)[C@H](C)n1c(=O)[nH]/c(=N\c2ccc3nc(C)ccc3c2)n(Cc2ccc(Cl)cc2)c1=O [Compound I-1322] | 20 nM | – | – |
| Cc1ccc(Cn2c(=O)n(C[C@H](C)C(=O)O)c(=O)[nH]/c2=N\c2ccc3nc(C)oc3c2)cc1 [Compound I-1279] | 158 nM | – | – |
| Cc1ccc(Cn2c(=O)n(C[C@H](C)C(=O)O)c(=O)[nH]/c2=N\c2ccc(C(C)C)c(Cl)c2)cc1 [Compound I-1494] | – | 571 nM | – |
| CC[C@H](C)COc1ccc(/N=c2\[nH]c(=O)n(C[C@H](C)C(=O)O)c(=O)n2Cc2ccc(C)cc2)cc1 [Compound I-1059] | – | – | IC50 [3]: 123 nM |
| CCn1c(=O)[nH]/c(=N\c2ccc(-n3cc(C(=O)OC)ccc3=O)cc2)n(Cc2ccc(Cl)cc2)c1=O [Compound I-2033] | 622 nM | – | – |
| CCOC(=O)CCn1c(=O)[nH]/c(=N\c2cccc(S(F)(F)(F)(F)F)c2)n(Cc2ccc(Cl)cc2)c1=O [Compound I-1646] | – | – | IC50 [3]: 43 nM |
| COC(=O)[C@@H](C)Cn1c(=O)[nH]/c(=N\c2cnc(OC3CCC3)c(C)c2)n(Cc2ccc(C)cc2)c1=O [Compound I-1478] | 19 nM | – | – |
| COC(=O)CCn1c(=O)[nH]/c(=N\C2CCCCC2)n(Cc2ccc(C)cc2)c1=O [Compound I-1668] | – | – | IC50 [3]: 309 nM |

| Structure (SMILES) | IC50 [1] | IC50 [2] | further results |
| --- | --- | --- | --- |
| CCCOc1ccc(/N=c2\[nH]c(=O)n(C[C@H](CC)C(=O)OC)c(=O)n2Cc2ccc(C)cc2)cc1 [Compound I-0883] | – | 24 nM | – |
| CCc1nc2ccc(/N=c3\[nH]c(=O)n(CCC(N)=O)c(=O)n3Cc3ccc(Cl)cc3)cc2s1 [Compound I-1768] | – | – | IC50 [3]: 6 nM |
| Cc1ccc(Cn2c(=O)n(C)c(=O)[nH]/c2=N\c2ccc(Oc3ccc(C(=O)O)cn3)cc2)cc1 [Compound I-2401] | – | 18 nM | – |
| CCn1c(=O)[nH]/c(=N\c2ccc(Oc3ccc(NC(C)=O)cc3)cc2)n(Cc2ccc(Cl)cc2)c1=O [Compound I-1871] | – | – | IC50 [3]: 6 nM |
| CCn1c(=O)[nH]/c(=N\c2ccc(Oc3ccc(C(N)=O)c(F)c3)cc2)n(Cc2ccc(Cl)cc2)c1=O [Compound I-2234] | – | 2 nM | – |
| COC(=O)c1cc(Oc2ccc(/N=c3\[nH]c(=O)n(C)c(=O)n3Cc3ccc(Cl)cc3)cc2)ccn1 [Compound I-2377] | – | 15 nM | – |
| CCn1c(=O)[nH]/c(=N\c2ccc(Oc3ccnnc3)cc2)n(Cc2ccc(C)cc2)c1=O [Compound I-2599] | – | 4 nM | – |
| CNC(=O)Cn1c(=O)[nH]/c(=N\c2ccc(Oc3ccnc(O)c3)cc2)n(Cc2ccc(Cl)cc2)c1=O [Compound I-1978] | 5 nM | – | – |
| COC(=O)[C@@H](C)Cn1c(=O)[nH]/c(=N\c2ccc(OCCC(C)C)cc2)n(Cc2ccc(C)cc2)c1=O [Compound I-1049] | – | – | IC50 [3]: 177 nM |
| CCCc1nc2ccc(/N=c3\[nH]c(=O)n(CCC(=O)O)c(=O)n3Cc3ccc(C)cc3)cc2s1 [Compound I-1560] | – | – | IC50 [3]: 51 nM |
| CCOC(=O)CCn1c(=O)[nH]/c(=N\c2ccc3nc(C)sc3c2)n(CC2CCC(C)CC2)c1=O (stereo not drawn) [Compound I-1990] | 2 nM | – | – |
| O=c1[nH]/c(=N\c2ccc(Oc3cnsn3)cc2)n(Cc2ccc(Cl)cc2)c(=O)n1CC(CO)CO [Compound I-2478] | – | 5 nM | – |
| CCOC(=O)CCn1c(=O)[nH]/c(=N\c2ccc(Oc3ccncc3)cc2)n(Cc2ccc(C)cc2)c1=O [Compound I-1230] | 4 nM | – | – |
| CCOC(=O)CCn1c(=O)[nH]/c(=N\c2ccc3nc(C4CC4)sc3c2)n(Cc2ccc(C)cc2)c1=O [Compound I-1559] | – | – | IC50 [3]: 5 nM |
| C[C@@H](Cn1c(=O)[nH]/c(=N\c2ccc(OCCO)cc2)n(Cc2ccc(Cl)cc2)c1=O)C(=O)O [Compound I-0733] | 287 nM | – | – |
| COc1cc(Cn2c(=O)[nH]/c(=N\c3ccc(OC(C)C)c(F)c3)n(Cc3ccc(Cl)cc3)c2=O)ccn1 [Compound I-0642] | 5 nM | – | – |
| CCc1nc2ccc(/N=c3\[nH]c(=O)n(CCC(=O)NS(C)(=O)=O)c(=O)n3Cc3ccc(Cl)cc3)cc2s1 [Compound I-1875] | – | – | IC50 [3]: 13 nM |
| CC(C)Oc1ccc(/N=c2\[nH]c(=O)n(CC(=O)N3CCOCC3)c(=O)n2Cc2ccc(Cl)cc2)cc1Cl [Compound I-0739] | 29 nM | – | – |
| CCn1c(=S)[nH]/c(=N\c2ccc(Oc3ccnc(O)c3)cc2)n(Cc2ccc(Cl)cc2)c1=O [Compound I-2258] | – | 3 nM | – |
| CC(C)Oc1ccc(/N=c2\[nH]c(OCC(=O)NCCO)nc(=O)n2Cc2ccc(Cl)cc2)cc1F [Compound I-0582] | 365 nM | – | – |
| COC(=O)[C@@H](C)Cn1c(=O)[nH]/c(=N\c2ccc(OC(C)C)c(C)c2)n(Cc2ccc(Br)cc2)c1=O [Compound I-0865] | – | 17 nM | – |
| O=C(O)Cn1c(=O)[nH]/c(=N\c2ccc(Oc3ncns3)cc2)n(Cc2ccc(Cl)cc2)c1=O [Compound I-2659] | – | 277 nM | – |

| Structure (SMILES) | IC50 [1] | IC50 [2] | further results |
| --- | --- | --- | --- |
| CCn1c(=O)[nH]/c(=N\c2cccc(Oc3cccc(C#N)n3)c2)n(Cc2ccc(Cl)cc2)c1=O [Compound I-2591] | – | 51 nM | – |
| Cc1cc2cc(/N=c3\[nH]c(=O)n(CC(CO)CO)c(=O)n3Cc3ccc(Cl)cc3)ccc2o1 [Compound I-2070] | 19 nM | – | – |
| Cc1ccc(Cn2c(=O)n(CCC(=O)O)c(=O)[nH]/c2=N\c2ccc(CC(C)C)c(Cl)c2)cc1 [Compound I-1427] | 8 nM | – | – |
| Cc1cc(/N=c2\[nH]c(=O)n(C[C@H](C)C(=O)O)c(=O)n2Cc2ccc(Br)cc2)ccc1OC(C)C [Compound I-0868] | – | 23 nM | – |
| C/C=C\c1ccc(Cn2c(=O)n(C[C@H](C)C(=O)O)c(=O)[nH]/c2=N\c2ccc(OC(C)C)cc2)cc1 [Compound I-1150] | – | – | IC50 [3]: 551 nM |
| Cc1ccc(Cn2c(=O)n(C[C@H](C)C(=O)O)c(=O)[nH]/c2=N\c2ccc(OCC3CC3)c(Cl)c2)cc1 [Compound I-0971] | – | – | IC50 [3]: 30 nM |
| CCn1c(=O)[nH]/c(=N\c2ccc(Oc3ccc(C(N)=O)nc3)cc2)n(Cc2ccc(Cl)cc2)c1=O [Compound I-2119] | 1 nM | – | – |
| NC(=O)Cn1c(=O)[nH]/c(=N\c2ccc(Oc3ccnnc3)cc2)n(Cc2ccc(Cl)cc2)c1=O [Compound I-2695] | – | 10 nM | – |
| O=C(Cn1c(=O)[nH]/c(=N\c2ccc(Oc3ccon3)cc2)n(Cc2ccc(Cl)cc2)c1=O)NCC(F)(F)F [Compound I-2681] | – | 4 nM | – |
| COC(=O)[C@@H](C)Cn1c(=O)[nH]/c(=N\c2ccc(CN(C)C)c(Cl)c2)n(Cc2ccc(C)cc2)c1=O [Compound I-1172] | – | – | IC50 [3]: 97 nM |
| COc1ccc(CN2C(=O)CC[C@@H]2Cn2c(=O)[nH]/c(=N\c3ccc(OC(C)C)c(F)c3)n(Cc3ccc(Cl)cc3)c2=O)cc1 [Compound I-0688] | 5 nM | – | – |
| COC(=O)[C@@H](C)Cn1c(=O)[nH]/c(=N\c2ccc(Oc3ccncc3)cc2)n(Cc2ccc(C)cc2)c1=O [Compound I-1125] | – | – | IC50 [3]: 4 nM |
| Cc1cc(/N=c2\[nH]c(=O)n(CC(CO)CO)c(=O)n2Cc2ccc(Cl)cc2)ccc1OC(C)C [Compound I-1905] | – | – | IC50 [3]: 5 nM |
| Cc1ccc(Cn2c(=O)n(C[C@H](C)C(=O)O)c(=O)[nH]/c2=N\c2ccc(Cl)c(C(F)(F)F)c2)cc1 [Compound I-1003] | – | – | IC50 [3]: 229 nM |
| COC(=O)[C@@H](C)Cn1c(=O)[nH]/c(=N\c2ccc(CC(C)(C)F)c(Cl)c2)n(Cc2ccc(C)cc2)c1=O [Compound I-1528] | – | 32 nM | – |
| Cc1cc(Oc2ccc(/N=c3\[nH]c(=O)n(CC(=O)NCCO)c(=O)n3Cc3ccc(Cl)cc3)cc2)ccn1 [Compound I-1928] | 5 nM | – | – |
| Cc1ccc(Cn2c(=O)n(C[C@H](C)C(=O)O)c(=O)[nH]/c2=N\c2ccc3oc(C)cc3c2)cc1 [Compound I-0681] | 49 nM | – | – |
| O=c1ccccn1-c1ccc(/N=c2\[nH]c(=O)n(CCO)c(=O)n2Cc2ccc(Cl)cc2)cc1 [Compound I-2044] | 125 nM | – | – |
| Cc1cc2cc(/N=c3\[nH]c(=O)n(CC4COC(C)(C)OC4)c(=O)n3Cc3ccc(Cl)cc3)ccc2o1 [Compound I-2069] | 7 nM | – | – |
| CCCc1ccc(/N=c2\[nH]c(=O)n(C[C@H](C)C(=O)O)c(=O)n2Cc2ccc(Cl)cc2)cc1 [Compound I-0627] | 91 nM | – | – |
| CCOc1ccc(/N=c2\[nH]c(=O)n(C[C@@H](C)C(=O)OC)c(=O)n2CC2CCCCC2)cc1Cl [Compound I-0632] | 11 nM | – | – |
| CC(C)Oc1ccc(/N=c2\[nH]c(=O)n(CCC(=O)O)c(=O)n2CC2CCCCCCC2)cc1F [Compound I-1916] | 995 nM | – | – |
